Laboratory results reported in PubChem BioAssay AID1963862 (Molecular Pharmacology Branch, DTP, NCI, 2024).

System: KRAS patient-derived spheroids with HUVEC/MSC, viability
Assay: Anticancer human tumor 941728-121-R-J1-PDC patient-derived lung adenocarcinoma cell line growth inhibition [KRAS2]
Details: for IC50: curve of first compound; for viability, T/C: stronger effect = lower value
Method in brief: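 Combination screen of spheroid viability in tumor-cell co-cultures with endothelial (HUVEC) and mesenchymal stem cell stroma. Each agent was tested in half-log dilutions, topping at clinical Cmax or at 10 microM without a known Cmax.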

[1] = second compound 0.1 µM, first compound 0.0316 µM
[2] = second compound 0.1 µM, first compound 0.1 µM
[3] = second compound 0.316 µM, first compound 0.0316 µM
[4] = second compound 0.316 µM, first compound 0.1 µM
[5] = second compound 1 µM, first compound 0.0316 µM
[6] = second compound 1 µM, first compound 0.1 µM
[7] = second compound 3.16 µM, first compound 0.0316 µM
[8] = second compound 3.16 µM, first compound 0.1 µM
[9] = second compound 10 µM, first compound 0.0316 µM
[10] = second compound 10 µM, first compound 0.1 µM
[11] = second compound 0.1 µM, first compound 0.316 µM
[12] = second compound 0.1 µM, first compound 1 µM
[13] = second compound 0.1 µM, first compound 3.16 µM
[14] = second compound 0.1 µM, first compound 10 µM
[15] = second compound 0.316 µM, first compound 0.316 µM
[16] = second compound 0.316 µM, first compound 1 µM
[17] = second compound 0.316 µM, first compound 3.16 µM
[18] = second compound 0.316 µM, first compound 10 µM
[19] = second compound 1 µM, first compound 0.316 µM
[20] = second compound 1 µM, first compound 1 µM
[21] = second compound 1 µM, first compound 3.16 µM
[22] = second compound 1 µM, first compound 10 µM
[23] = second compound 3.16 µM, first compound 0.316 µM
[24] = second compound 3.16 µM, first compound 1 µM
[25] = second compound 3.16 µM, first compound 3.16 µM
[26] = second compound 3.16 µM, first compound 10 µM
[27] = second compound 10 µM, first compound 0.316 µM
[28] = second compound 10 µM, first compound 1 µM
[29] = second compound 10 µM, first compound 3.16 µM
[30] = second compound 10 µM, first compound 10 µM
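Further: spheroids exposed to agents for seven days before readout.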

| Compound | IC50 (second compound 0.1 µM) [nM] | IC50 (second compound 0.316 µM) [nM] | IC50 (second compound 1 µM) [nM] | IC50 (second compound 3.16 µM) [nM] | IC50 (second compound 10 µM) [nM] | viability, T/C [1] [%] | viability, T/C [2] [%] | viability, T/C [3] [%] | viability, T/C [4] [%] | viability, T/C [5] [%] | viability, T/C [6] [%] | viability, T/C [7] [%] | viability, T/C [8] [%] | viability, T/C [9] [%] | viability, T/C [10] [%] | viability, T/C [11] [%] | viability, T/C [12] [%] | viability, T/C [13] [%] | viability, T/C [14] [%] | viability, T/C [15] [%] | also measured |
| --- | --- | --- | --- | --- | --- | --- | --- | --- | --- | --- | --- | --- | --- | --- | --- | --- | --- | --- | --- | --- | --- |
| CC(C)n1nc(-c2ccc3oc(N)nc3c2)c2c(N)ncnc21 + C=CC(=O)N1CCN(c2nc(=O)n(-c3c(C)ccnc3C(C)C)c3nc(-c4c(O)cccc4F)c(F)cc23)C(C)C1 | < 0.316 | < 0.316 | < 0.316 | < 0.316 | < 0.316 | 4.43 | 3.9 | 4.02 | 3.22 | 4.43 | 5.61 | 6 | 6.12 | 11.3 | 11.2 | – | – | – | – | – | viability, T/C (second compound 0.1 µM, first compound 0.000316 µM): 13.2%; viability, T/C (second compound 0.1 µM, first compound 0.001 µM): 17%; viability, T/C (second compound 0.1 µM, first compound 0.00316 µM): 8.16%; viability, T/C (second compound 0.1 µM, first compound 0.01 µM): 5.92%; viability, T/C (second compound 0.316 µM, first compound 0.000316 µM): 13.8%; viability, T/C (second compound 0.316 µM, first compound 0.001 µM): 11.7%; viability, T/C (second compound 0.316 µM, first compound 0.00316 µM): 10.2%; viability, T/C (second compound 0.316 µM, first compound 0.01 µM): 6.98%; viability, T/C (second compound 1 µM, first compound 0.000316 µM): 15%; viability, T/C (second compound 1 µM, first compound 0.001 µM): 11%; viability, T/C (second compound 1 µM, first compound 0.00316 µM): 9.95%; viability, T/C (second compound 1 µM, first compound 0.01 µM): 7.7%; viability, T/C (second compound 3.16 µM, first compound 0.000316 µM): 14.2%; viability, T/C (second compound 3.16 µM, first compound 0.001 µM): 16.4%; viability, T/C (second compound 3.16 µM, first compound 0.00316 µM): 13.3%; viability, T/C (second compound 3.16 µM, first compound 0.01 µM): 9.65%; viability, T/C (second compound 10 µM, first compound 0.000316 µM): 17.3%; viability, T/C (second compound 10 µM, first compound 0.001 µM): 16.8%; viability, T/C (second compound 10 µM, first compound 0.00316 µM): 16.5%; viability, T/C (second compound 10 µM, first compound 0.01 µM): 15.2% |
| COc1cc2nccc(Oc3ccc(NC(=O)C4(C(=O)Nc5ccc(F)cc5)CC4)cc3)c2cc1OC + CC1OCC2(CCN(c3cnc(Sc4ccnc(N)c4Cl)c(N)n3)CC2)C1N | < 31.6 | < 31.6 | < 31.6 | < 31.6 | < 31.6 | 48.9 | 40 | 28.8 | 26.2 | 25.3 | 25.9 | 25.3 | 20.1 | 20.7 | 14.8 | 31.5 | 29.4 | 34.2 | 26.9 | 29 | viability, T/C [16]: 27.8%; viability, T/C [17]: 14.6%; viability, T/C [18]: 16.6%; viability, T/C [19]: 24.1%; viability, T/C [20]: 15.5%; viability, T/C [21]: 8.65%; viability, T/C [22]: 7.11%; viability, T/C [23]: 11.7%; viability, T/C [24]: 12%; viability, T/C [25]: 7.91%; viability, T/C [26]: 4.69%; viability, T/C [27]: 12.2%; viability, T/C [28]: 8.99%; viability, T/C [29]: 4.63%; viability, T/C [30]: 4.36% |
| O=C(c1cc(Cc2n[nH]c(=O)c3ccccc23)ccc1F)N1CCN(C(=O)C2CC2)CC1 + C=CC(=O)N1CCN(c2nc(=O)n(-c3c(C)ccnc3C(C)C)c3nc(-c4c(O)cccc4F)c(F)cc23)C(C)C1 | < 31.6 | < 31.6 | < 31.6 | < 31.6 | < 31.6 | 29.5 | 24.6 | 28.2 | 33.6 | 34.2 | 34.4 | 35.2 | 34.2 | 39.3 | 43.3 | 21.9 | 19.5 | 21.1 | 23.8 | 24.4 | viability, T/C [16]: 19.8%; viability, T/C [17]: 24.2%; viability, T/C [18]: 25.2%; viability, T/C [19]: 33.8%; viability, T/C [20]: 29.3%; viability, T/C [21]: 24.7%; viability, T/C [22]: 26.7%; viability, T/C [23]: 36%; viability, T/C [24]: 30.9%; viability, T/C [25]: 34.6%; viability, T/C [26]: 35.3%; viability, T/C [27]: 42.1%; viability, T/C [28]: 43.2%; viability, T/C [29]: 45%; viability, T/C [30]: 48.2% |
| COc1cc(Nc2ncc3c(n2)-c2ccc(Cl)cc2C(c2c(F)cccc2OC)=NC3)ccc1C(=O)O + CC1OCC2(CCN(c3cnc(Sc4ccnc(N)c4Cl)c(N)n3)CC2)C1N | 137 | < 31.6 | < 31.6 | < 31.6 | < 31.6 | 53.1 | 47.6 | 42.3 | 41.9 | 29.8 | 33.4 | 23.7 | 25.4 | 16 | 15.4 | 48.5 | 48.5 | 50.3 | 41.6 | 40.2 | viability, T/C [16]: 39.2%; viability, T/C [17]: 36.6%; viability, T/C [18]: 35.3%; viability, T/C [19]: 36.6%; viability, T/C [20]: 34.6%; viability, T/C [21]: 28%; viability, T/C [22]: 23.9%; viability, T/C [23]: 26.9%; viability, T/C [24]: 26.6%; viability, T/C [25]: 13%; viability, T/C [26]: 14.5%; viability, T/C [27]: 13.4%; viability, T/C [28]: 13.6%; viability, T/C [29]: 12.4%; viability, T/C [30]: 9.18% |
